Reference: patent US11802111B2, “Cyclobutyl amide monoacylglycerol lipase modulators” (Janssen Pharmaceutica NV, priority 2020, dated 2023)

Biological target: human MGL from HeLa cells (Homo sapiens (Human), UniProt Q99685)
Experiment: MGL in vitro activity assay ([glycerol-1,3-3H]-oleoyl glycerol hydrolysis, activated carbon filtration)
Assay type: biochemical
Conditions: 300 nM [Glycerol-1,3-3H]-oleoyl glycerol, one hour
Summary of the method: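 Activity measured as tritium in the flow-through after activated carbon filtration of a 1 h reaction containing 300 nM 3H-oleoyl glycerol, compound and HeLa-derived human MGL. Compounds screened at 10 μM; IC50 series start at an empirically chosen highest concentration.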

Chain of human MGL from HeLa cells (Q99685 whole entry): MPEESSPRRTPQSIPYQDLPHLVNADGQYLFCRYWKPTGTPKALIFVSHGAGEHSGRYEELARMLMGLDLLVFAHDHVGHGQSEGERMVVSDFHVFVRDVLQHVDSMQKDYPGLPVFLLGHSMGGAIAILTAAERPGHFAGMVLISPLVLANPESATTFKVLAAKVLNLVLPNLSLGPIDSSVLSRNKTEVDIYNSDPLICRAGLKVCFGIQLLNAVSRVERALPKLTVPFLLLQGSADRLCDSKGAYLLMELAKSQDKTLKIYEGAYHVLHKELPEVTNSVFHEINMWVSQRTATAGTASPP

**Q.** `Cc1cc2cccnc2n1CC1CC2(C1)CN(C(=O)[C@H]1C[C@@](C)(O)C1)C2` [Example 287, ((1s,3s)-3-Hydroxy-3-methylcyclobutyl)(6-((2-methyl-1H-pyrrolo[2,3-b]pyridin-1-yl)methyl)-2-azaspiro[3.3]heptan-2-yl)methanone] was tested. Which IC50 did it give?
**A.** 67 nM

**Q.** With `Cc1ccc2ccn(CC3CC4(C3)CN(C(=O)[C@H]3C[C@@](C)(O)C3)C4)c2n1` [Example 288, ((1s,3s)-3-Hydroxy-3-methylcyclobutyl)(6-((6-methyl-1H-pyrrolo[2,3-b]pyridin-1-yl)methyl)-2-azaspiro[3.3]heptan-2-yl)methanone] as the compound, how does the IC50 read?
**A.** 26 nM

**Q.** Which IC50 does the source give for `CC(C)n1ccc2ccc(CC3CC4(C3)CN(C(=O)C3CC(C)(O)C3)C4)nc21` (stereo not shown) [Example 289, ((1s,3s)-3-Hydroxy-3-methylcyclobutyl)(6-((1-isopropyl-1H-pyrrolo[2,3-b]pyridin-6-yl)methyl)-2-azaspiro[3.3]heptan-2-yl)methanone] here?
**A.** 8.2 nM

**Q.** For `CC(C)c1ccc2ccn(CC3CC4(C3)CN(C(=O)[C@H]3C[C@@](C)(O)C3)C4)c2n1` [Example 290, ((1s,3s)-3-Hydroxy-3-methylcyclobutyl)(6-((6-isopropyl-1H-pyrrolo[2,3-b]pyridin-1-yl)methyl)-2-azaspiro[3.3]heptan-2-yl)methanone], which IC50 is on record?
**A.** 16 nM

**Q.** For `Cc1cn(C)c2nc(CC3CC4(C3)CN(C(=O)[C@H]3C[C@@](C)(O)C3)C4)ccc12` [Example 291, (6-((1,3-Dimethyl-1H-pyrrolo[2,3-b]pyridin-6-yl)methyl)-2-azaspiro[3.3]heptan-2-yl)((1s,3s)-3-hydroxy-3-methylcyclobutyl)methanone], which IC50 is on record?
**A.** 3.8 nM

**Q.** How did the IC50 turn out when `Cc1cc2ccc(CC3CC4(C3)CN(C(=O)[C@H]3C[C@@](C)(O)C3)C4)nc2n1C` [Example 292, (6-((1,2-Dimethyl-1H-pyrrolo[2,3-b]pyridin-6-yl)methyl)-2-azaspiro[3.3]heptan-2-yl)((1s,3s)-3-hydroxy-3-methylcyclobutyl)methanone] was run?
**A.** 19 nM

**Q.** With `Cn1cc(F)c2ccc(CC3CC4(C3)CN(C(=O)[C@H]3C[C@@](C)(O)C3)C4)nc21` [Example 293, (6-((3-Fluoro-1-methyl-1H-pyrrolo[2,3-b]pyridin-6-yl)methyl)-2-azaspiro[3.3]heptan-2-yl)((1s,3s)-3-hydroxy-3-methylcyclobutyl)methanone] as the compound, how does the IC50 read?
**A.** 10 nM

**Q.** Which IC50 does the source give for `C[C@]1(O)C[C@@H](C(=O)N2CC3(CC(Cn4c(C(F)(F)F)cc5cccnc54)C3)C2)C1` [Example 294, ((1s,3s)-3-Hydroxy-3-methylcyclobutyl)(6-((2-(trifluoromethyl)-1H-pyrrolo[2,3-b]pyridin-1-yl)methyl)-2-azaspiro[3.3]heptan-2-yl)methanone] here?
**A.** 10 nM

**Q.** For `C[C@]1(O)C[C@@H](C(=O)N2CC3(CC(Cn4ccc5ccc(C(F)(F)F)nc54)C3)C2)C1` [Example 295, ((1s,3s)-3-Hydroxy-3-methylcyclobutyl)(6-((6-(trifluoromethyl)-1H-pyrrolo[2,3-b]pyridin-1-yl)methyl)-2-azaspiro[3.3]heptan-2-yl)methanone], which IC50 is on record?
**A.** 20 nM

**Q.** Which IC50 does the source give for `Cn1cc(C(F)(F)F)c2ccc(CC3CC4(C3)CN(C(=O)[C@H]3C[C@@](C)(O)C3)C4)nc21` [Example 296, ((1s,3s)-3-Hydroxy-3-methylcyclobutyl)(6-((1-methyl-3-(trifluoromethyl)-1H-pyrrolo[2,3-b]pyridin-6-yl)methyl)-2-azaspiro[3.3]heptan-2-yl)methanone] here?
**A.** 0.29 nM

**Q.** Which IC50 does the source give for `C[C@]1(O)C[C@@H](C(=O)N2CC3(CC(Cc4ccc5ccn(CC(F)(F)F)c5n4)C3)C2)C1` [Example 297, ((1s,3s)-3-Hydroxy-3-methylcyclobutyl)(6-((1-(2,2,2-trifluoroethyl)-1H-pyrrolo[2,3-b]pyridin-6-yl)methyl)-2-azaspiro[3.3]heptan-2-yl)methanone] here?
**A.** 21 nM

**Q.** `Cn1ccc2cnc(CC3CC4(C3)CN(C(=O)[C@H]3C[C@@](C)(O)C3)C4)cc21` [Example 298, ((1s,3s)-3-Hydroxy-3-methylcyclobutyl)(6-((1-methyl-1H-pyrrolo[3,2-c]pyridin-6-yl)methyl)-2-azaspiro[3.3]heptan-2-yl)methanone] was tested. Which IC50 did it give?
**A.** 775 nM

**Q.** With `Cn1ncc2cccc(CC3CC4(C3)CN(C(=O)[C@H]3C[C@@](C)(O)C3)C4)c21` [Example 299, ((1s,3s)-3-Hydroxy-3-methylcyclobutyl)(6-((1-methyl-1H-indazol-7-yl)methyl)-2-azaspiro[3.3]heptan-2-yl)methanone] as the compound, how does the IC50 read?
**A.** 70 nM

**Q.** For `Cc1cc(CC2CC3(C2)CN(C(=O)[C@H]2C[C@@](C)(O)C2)C3)cc2c1cnn2C` [Example 300, (6-((1,4-Dimethyl-1H-indazol-6-yl)methyl)-2-azaspiro[3.3]heptan-2-yl)((1s,3s)-3-hydroxy-3-methylcyclobutyl)methanone], which IC50 is on record?
**A.** 20 nM

**Q.** With `Cc1cc2cnn(C)c2cc1CC1CC2(C1)CN(C(=O)[C@H]1C[C@@](C)(O)C1)C2` [Example 301, (6-((1,5-Dimethyl-1H-indazol-6-yl)methyl)-2-azaspiro[3.3]heptan-2-yl)((1s,3s)-3-hydroxy-3-methylcyclobutyl)methanone] as the compound, how does the IC50 read?
**A.** 36 nM

**Q.** How did the IC50 turn out when `Cc1nn(C)c2cc(CC3CC4(C3)CN(C(=O)[C@H]3C[C@@](C)(O)C3)C4)ccc12` [Example 302, (6-((1,3-Dimethyl-1H-indazol-6-yl)methyl)-2-azaspiro[3.3]heptan-2-yl)((1s,3s)-3-hydroxy-3-methylcyclobutyl)methanone] was run?
**A.** 21 nM

**Q.** With `Cn1ncc2c(F)cc(CC3CC4(C3)CN(C(=O)[C@H]3C[C@@](C)(O)C3)C4)cc21` [Example 303, (6-((4-Fluoro-1-methyl-1H-indazol-6-yl)methyl)-2-azaspiro[3.3]heptan-2-yl)((1s,3s)-3-hydroxy-3-methylcyclobutyl)methanone] as the compound, how does the IC50 read?
**A.** 29 nM

**Q.** With `Cn1ncc2cc(F)c(CC3CC4(C3)CN(C(=O)[C@H]3C[C@@](C)(O)C3)C4)cc21` [Example 304, (6-((5-Fluoro-1-methyl-1H-indazol-6-yl)methyl)-2-azaspiro[3.3]heptan-2-yl)((1s,3s)-3-hydroxy-3-methylcyclobutyl)methanone] as the compound, how does the IC50 read?
**A.** 13 nM

**Q.** Which IC50 does the source give for `Cn1ncc2ccc(CC3CC4(C3)CN(C(=O)[C@H]3C[C@@](C)(O)C3)C4)c(F)c21` [Example 305, (6-((7-Fluoro-1-methyl-1H-indazol-6-yl)methyl)-2-azaspiro[3.3]heptan-2-yl)((1s,3s)-3-hydroxy-3-methylcyclobutyl)methanone] here?
**A.** 28 nM

**Q.** Which IC50 does the source give for `CC(C)n1ncc2ccc(CC3CC4(C3)CN(C(=O)[C@H]3C[C@@](C)(O)C3)C4)cc21` [Example 306, ((1s,3s)-3-Hydroxy-3-methylcyclobutyl)(6-((1-isopropyl-1H-indazol-6-yl)methyl)-2-azaspiro[3.3]heptan-2-yl)methanone] here?
**A.** 23 nM

**Q.** Which IC50 does the source give for `C[C@]1(O)C[C@@H](C(=O)N2CC3(CC(Cc4ccc5cnn(CC(F)(F)F)c5c4)C3)C2)C1` [Example 307, ((1s,3s)-3-Hydroxy-3-methylcyclobutyl)(6-((1-(2,2,2-trifluoroethyl)-1H-indazol-6-yl)methyl)-2-azaspiro[3.3]heptan-2-yl)methanone] here?
**A.** 431 nM

**Q.** For `CC(C)n1cc2ccc(CC3CC4(C3)CN(C(=O)[C@H]3C[C@@](C)(O)C3)C4)cc2n1` [Example 308, ((1s,3s)-3-Hydroxy-3-methylcyclobutyl)(6-((2-isopropyl-2H-indazol-6-yl)methyl)-2-azaspiro[3.3]heptan-2-yl)methanone], which IC50 is on record?
**A.** 117 nM

**Q.** Which IC50 does the source give for `Cc1nc(OC2CC3(C2)CN(C(=O)[C@H]2C[C@@](C)(O)C2)C3)ccc1C(F)(F)F` [Example 309, ((1s,3s)-3-Hydroxy-3-methylcyclobutyl)(6-((6-methyl-5-(trifluoromethyl)pyridin-2-yl)oxy)-2-azaspiro[3.3]heptan-2-yl)methanone] here?
**A.** 130 nM

**Q.** For `Cn1ccc2ccc(C(F)(F)C3CC4(C3)CN(C(=O)[C@H]3C[C@@](C)(O)C3)C4)nc21` [Example 317, (6-(Difluoro(1-methyl-1H-pyrrolo[2,3-b]pyridin-6-yl)methyl)-2-azaspiro[3.3]heptan-2-yl)((1s,3s)-3-hydroxy-3-methylcyclobutyl)methanone], which IC50 is on record?
**A.** 69 nM

**Q.** For `C[C@]1(O)C[C@@H](C(=O)N2CC3(CCC(F)(c4ccccc4)CC3)C2)C1` [Example 340, (7-Fluoro-7-phenyl-2-azaspiro[3.5]nonan-2-yl)((1s,3s)-3-hydroxy-3-methylcyclobutyl)methanone], which IC50 is on record?
**A.** 288 nM

**Q.** Which IC50 does the source give for `Cn1ccc2ccc(C3(F)CCC4(CC3)CN(C(=O)[C@H]3C[C@@](C)(O)C3)C4)nc21` [Example 341, (7-Fluoro-7-(1-methyl-1H-pyrrolo[2,3-b]pyridin-6-yl)-2-azaspiro[3.5]nonan-2-yl)((1s,3s)-3-hydroxy-3-methylcyclobutyl)methanone] here?
**A.** 101 nM

**Q.** `COC1(c2ccccc2)CCC2(CC1)CN(C(=O)[C@H]1C[C@@](C)(O)C1)C2` [Example 342, ((1s,3s)-3-Hydroxy-3-methylcyclobutyl)(7-methoxy-7-phenyl-2-azaspiro[3.5]nonan-2-yl)methanone] was tested. Which IC50 did it give?
**A.** 40 nM

**Q.** For `COC1(c2ccccc2C)CCC2(CC1)CN(C(=O)[C@H]1C[C@@](C)(O)C1)C2` [Example 343, ((1s,3s)-3-Hydroxy-3-methylcyclobutyl)(7-methoxy-7-(o-tolyl)-2-azaspiro[3.5]nonan-2-yl)methanone], which IC50 is on record?
**A.** 16 nM

**Q.** With `COC1(c2cc(C)cc(C)c2)CCC2(CC1)CN(C(=O)[C@H]1C[C@@](C)(O)C1)C2` [Example 344, (7-(3,5-Dimethylphenyl)-7-methoxy-2-azaspiro[3.5]nonan-2-yl)((1s,3s)-3-hydroxy-3-methylcyclobutyl)methanone] as the compound, how does the IC50 read?
**A.** 0.84 nM

**Q.** For `Cn1cnc(-c2cccc(C3CCC4(CC3)CN(C(=O)[C@H]3C[C@@](C)(O)C3)C4)c2)c1` [Example 345, ((1s,3s)-3-Hydroxy-3-methylcyclobutyl)(7-(3-(1-methyl-1H-imidazol-4-yl)phenyl)-2-azaspiro[3.5]nonan-2-yl)methanone], which IC50 is on record?
**A.** 187 nM

**Q.** With `C[C@]1(O)C[C@@H](C(=O)N2CC3(CCC(c4ccc(-n5cccn5)cc4)CC3)C2)C1` [Example 346, (7-(4-(1H-Pyrazol-1-yl)phenyl)-2-azaspiro[3.5]nonan-2-yl)((1s,3s)-3-hydroxy-3-methylcyclobutyl)methanone] as the compound, how does the IC50 read?
**A.** 295 nM
